Source: ChEMBL document CHEMBL1201862, “PubChem BioAssay data set” (2004)
The source made the active and inactive calls.

What was measured:
INS1 = experiment: INS-1E survival protection against cytokine death – cell-based, luminescence, retest, dose response (AID 449756); format: functional; conditions: Rattus norvegicus;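 note: cell death triggered by IL-1 beta plus TNF-alpha plus IFN-gamma mixture; protective hits raise ATP signal compared with cytokine alone wells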
Caspase-3 = molecular target: T1, Caspase-3 (Homo sapiens, UniProt P42574); format: functional;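 note: Dose-response selectivity test against caspase-3 for candidate inhibitors of sentrin-specific proteases (SENPs)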
T1 sequence (P42574 whole entry): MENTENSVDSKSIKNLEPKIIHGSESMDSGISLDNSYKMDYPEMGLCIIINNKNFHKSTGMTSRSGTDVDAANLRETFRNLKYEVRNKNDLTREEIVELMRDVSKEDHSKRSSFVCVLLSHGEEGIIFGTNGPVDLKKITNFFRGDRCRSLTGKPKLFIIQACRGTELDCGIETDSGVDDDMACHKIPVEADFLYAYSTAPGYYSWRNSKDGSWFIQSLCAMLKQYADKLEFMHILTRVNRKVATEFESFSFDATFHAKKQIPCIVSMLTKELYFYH

Aurora kinase A = Aurora kinase A (Homo sapiens, UniProt O14965); format: functional;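 note: value from the Navigating the Kinome kinase panel profiling, panel entry STK6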
[1] = molecular target: Rho-associated protein kinase 1 (Homo sapiens, UniProt Q13464); format: functional;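 note: measured within a broad kinome-wide panel profiling many kinases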
[2] = molecular target: Inhibitor of nuclear factor kappa-B kinase subunit epsilon (Homo sapiens, UniProt Q14164); experiment: Navigating the Kinome. Panel member name: IKBKE; format: functional
[3] = molecular target: Serine/threonine-protein kinase TBK1 (Homo sapiens, UniProt Q9UHD2); experiment: Navigating the Kinome. Panel member name: TBK1; format: functional
[4] = molecular target: Insulin-like growth factor 1 receptor (Homo sapiens, UniProt P08069); experiment: Navigating the Kinome. Panel member name: IGF1R; format: functional
[5] = molecular target: Ribosomal protein S6 kinase alpha-3 (Homo sapiens, UniProt P51812); format: functional;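 note: measured within a kinome-wide profiling panel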
[6] = molecular target: Dual specificity tyrosine-phosphorylation-regulated kinase 1B (Homo sapiens, UniProt Q9Y463); experiment: Navigating the Kinome. Panel member name: DYRK1B; format: functional
[7] = molecular target: T2, Histone-lysine N-methyltransferase NSD2 (Homo sapiens, UniProt O96028); format: biochemical
T2 sequence (O96028 whole entry): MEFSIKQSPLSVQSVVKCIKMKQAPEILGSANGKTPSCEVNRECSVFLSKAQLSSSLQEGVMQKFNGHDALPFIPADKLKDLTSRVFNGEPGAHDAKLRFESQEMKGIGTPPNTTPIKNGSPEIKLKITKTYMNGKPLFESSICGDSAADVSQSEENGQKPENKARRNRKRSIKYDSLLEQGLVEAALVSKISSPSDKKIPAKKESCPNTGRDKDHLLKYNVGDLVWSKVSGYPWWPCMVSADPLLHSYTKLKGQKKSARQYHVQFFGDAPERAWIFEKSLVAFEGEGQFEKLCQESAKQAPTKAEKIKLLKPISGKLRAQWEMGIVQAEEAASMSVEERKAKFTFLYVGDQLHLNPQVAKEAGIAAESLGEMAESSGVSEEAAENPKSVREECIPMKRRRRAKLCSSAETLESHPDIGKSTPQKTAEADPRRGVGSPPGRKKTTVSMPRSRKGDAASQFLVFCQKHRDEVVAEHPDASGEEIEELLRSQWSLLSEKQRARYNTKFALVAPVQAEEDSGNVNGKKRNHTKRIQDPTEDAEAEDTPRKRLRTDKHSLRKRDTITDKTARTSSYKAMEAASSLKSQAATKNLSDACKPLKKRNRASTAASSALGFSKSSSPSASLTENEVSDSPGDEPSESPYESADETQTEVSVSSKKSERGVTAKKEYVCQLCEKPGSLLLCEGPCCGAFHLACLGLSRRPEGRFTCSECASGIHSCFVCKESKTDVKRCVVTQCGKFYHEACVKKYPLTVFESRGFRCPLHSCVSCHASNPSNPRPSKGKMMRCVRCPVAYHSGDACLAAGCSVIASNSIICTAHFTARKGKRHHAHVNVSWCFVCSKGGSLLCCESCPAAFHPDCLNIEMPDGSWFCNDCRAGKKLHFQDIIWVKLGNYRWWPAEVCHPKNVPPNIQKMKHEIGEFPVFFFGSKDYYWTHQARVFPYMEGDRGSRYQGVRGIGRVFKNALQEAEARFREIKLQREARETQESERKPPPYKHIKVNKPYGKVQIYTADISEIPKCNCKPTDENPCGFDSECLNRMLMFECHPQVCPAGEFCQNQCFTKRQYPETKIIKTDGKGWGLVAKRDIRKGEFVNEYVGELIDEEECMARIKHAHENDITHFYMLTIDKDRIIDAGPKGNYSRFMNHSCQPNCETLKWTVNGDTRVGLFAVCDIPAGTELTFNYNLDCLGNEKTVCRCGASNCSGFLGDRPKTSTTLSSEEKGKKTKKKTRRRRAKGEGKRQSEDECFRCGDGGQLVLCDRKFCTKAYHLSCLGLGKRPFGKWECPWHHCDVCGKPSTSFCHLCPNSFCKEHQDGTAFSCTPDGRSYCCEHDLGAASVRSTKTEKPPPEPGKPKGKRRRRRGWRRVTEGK

Chain of Insulin-like growth factor 1 receptor (P08069 31-736 limits assumed): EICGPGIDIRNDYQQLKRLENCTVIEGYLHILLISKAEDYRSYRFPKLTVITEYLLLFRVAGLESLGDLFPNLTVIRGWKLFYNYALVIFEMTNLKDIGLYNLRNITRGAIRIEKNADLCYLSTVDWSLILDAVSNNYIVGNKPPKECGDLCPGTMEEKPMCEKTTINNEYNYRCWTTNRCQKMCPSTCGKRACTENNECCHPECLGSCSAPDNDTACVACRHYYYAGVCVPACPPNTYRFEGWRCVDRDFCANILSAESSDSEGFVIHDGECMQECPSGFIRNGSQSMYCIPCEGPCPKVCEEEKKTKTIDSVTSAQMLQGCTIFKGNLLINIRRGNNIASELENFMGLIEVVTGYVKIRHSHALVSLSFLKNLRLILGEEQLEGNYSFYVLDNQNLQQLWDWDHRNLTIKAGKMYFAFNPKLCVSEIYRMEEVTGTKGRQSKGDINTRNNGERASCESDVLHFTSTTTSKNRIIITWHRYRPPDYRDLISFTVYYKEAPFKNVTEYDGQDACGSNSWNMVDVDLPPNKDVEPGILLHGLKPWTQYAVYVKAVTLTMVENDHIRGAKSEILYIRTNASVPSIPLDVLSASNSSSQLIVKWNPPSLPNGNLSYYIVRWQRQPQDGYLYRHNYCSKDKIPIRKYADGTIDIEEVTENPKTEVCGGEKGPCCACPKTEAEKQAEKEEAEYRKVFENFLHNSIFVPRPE
Chain of Insulin-like growth factor 1 receptor (P08069 741-1367 limits assumed): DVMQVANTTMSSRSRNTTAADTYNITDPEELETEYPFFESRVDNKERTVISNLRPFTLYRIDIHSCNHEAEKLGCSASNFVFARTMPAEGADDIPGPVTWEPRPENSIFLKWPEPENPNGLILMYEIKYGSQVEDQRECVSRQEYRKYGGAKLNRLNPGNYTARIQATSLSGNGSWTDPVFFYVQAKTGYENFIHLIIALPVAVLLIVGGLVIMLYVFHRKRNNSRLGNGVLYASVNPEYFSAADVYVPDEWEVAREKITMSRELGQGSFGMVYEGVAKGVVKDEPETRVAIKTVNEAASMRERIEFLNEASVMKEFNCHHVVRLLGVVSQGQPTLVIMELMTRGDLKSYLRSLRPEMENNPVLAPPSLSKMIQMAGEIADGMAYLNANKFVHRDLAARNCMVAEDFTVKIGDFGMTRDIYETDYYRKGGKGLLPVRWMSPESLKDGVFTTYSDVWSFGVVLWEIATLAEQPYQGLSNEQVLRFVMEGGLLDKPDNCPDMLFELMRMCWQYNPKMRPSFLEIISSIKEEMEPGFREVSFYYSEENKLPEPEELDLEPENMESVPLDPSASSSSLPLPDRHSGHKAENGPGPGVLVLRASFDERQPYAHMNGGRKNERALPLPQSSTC
Chain of Ribosomal protein S6 kinase alpha-3 (P51812 whole entry): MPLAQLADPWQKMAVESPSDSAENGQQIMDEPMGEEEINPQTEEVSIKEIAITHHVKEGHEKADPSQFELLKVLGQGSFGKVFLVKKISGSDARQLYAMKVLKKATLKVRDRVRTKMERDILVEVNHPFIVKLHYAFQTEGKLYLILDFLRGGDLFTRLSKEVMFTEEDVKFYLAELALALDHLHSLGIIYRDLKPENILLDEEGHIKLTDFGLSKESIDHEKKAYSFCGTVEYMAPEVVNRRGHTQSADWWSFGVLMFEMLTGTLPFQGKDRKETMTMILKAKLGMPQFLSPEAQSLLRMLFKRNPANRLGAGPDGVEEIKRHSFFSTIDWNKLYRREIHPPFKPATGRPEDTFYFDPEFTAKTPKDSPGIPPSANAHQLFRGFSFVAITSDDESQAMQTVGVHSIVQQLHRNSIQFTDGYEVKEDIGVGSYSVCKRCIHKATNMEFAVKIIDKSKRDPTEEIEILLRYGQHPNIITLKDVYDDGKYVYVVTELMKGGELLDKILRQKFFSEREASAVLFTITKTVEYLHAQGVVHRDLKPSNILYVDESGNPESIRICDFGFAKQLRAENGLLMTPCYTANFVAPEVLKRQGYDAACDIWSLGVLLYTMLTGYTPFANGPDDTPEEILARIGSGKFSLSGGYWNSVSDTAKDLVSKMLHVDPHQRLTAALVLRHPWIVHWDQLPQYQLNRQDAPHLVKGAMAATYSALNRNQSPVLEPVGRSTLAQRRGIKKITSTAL
Chain of Inhibitor of nuclear factor kappa-B kinase subunit epsilon (Q14164 whole entry): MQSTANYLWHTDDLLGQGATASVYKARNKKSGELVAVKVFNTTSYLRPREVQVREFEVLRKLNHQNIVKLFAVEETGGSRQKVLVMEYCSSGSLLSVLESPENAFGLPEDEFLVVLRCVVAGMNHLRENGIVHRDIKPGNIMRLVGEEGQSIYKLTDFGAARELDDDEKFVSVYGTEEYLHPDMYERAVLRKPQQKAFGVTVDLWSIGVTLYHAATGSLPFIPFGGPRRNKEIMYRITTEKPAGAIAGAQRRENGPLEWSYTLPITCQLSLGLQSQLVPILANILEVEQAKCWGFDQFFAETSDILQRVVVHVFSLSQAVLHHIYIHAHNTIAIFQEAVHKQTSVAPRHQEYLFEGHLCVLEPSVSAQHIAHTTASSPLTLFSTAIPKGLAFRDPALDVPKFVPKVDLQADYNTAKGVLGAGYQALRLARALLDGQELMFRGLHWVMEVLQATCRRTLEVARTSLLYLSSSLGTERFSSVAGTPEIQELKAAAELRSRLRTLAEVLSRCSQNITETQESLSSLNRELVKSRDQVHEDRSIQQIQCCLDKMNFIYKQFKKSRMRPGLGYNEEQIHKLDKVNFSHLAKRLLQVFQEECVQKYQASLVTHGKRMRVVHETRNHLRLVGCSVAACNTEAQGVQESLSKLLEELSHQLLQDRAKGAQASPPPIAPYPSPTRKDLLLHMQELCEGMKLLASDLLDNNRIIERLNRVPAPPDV
Chain of Aurora kinase A (O14965 whole entry): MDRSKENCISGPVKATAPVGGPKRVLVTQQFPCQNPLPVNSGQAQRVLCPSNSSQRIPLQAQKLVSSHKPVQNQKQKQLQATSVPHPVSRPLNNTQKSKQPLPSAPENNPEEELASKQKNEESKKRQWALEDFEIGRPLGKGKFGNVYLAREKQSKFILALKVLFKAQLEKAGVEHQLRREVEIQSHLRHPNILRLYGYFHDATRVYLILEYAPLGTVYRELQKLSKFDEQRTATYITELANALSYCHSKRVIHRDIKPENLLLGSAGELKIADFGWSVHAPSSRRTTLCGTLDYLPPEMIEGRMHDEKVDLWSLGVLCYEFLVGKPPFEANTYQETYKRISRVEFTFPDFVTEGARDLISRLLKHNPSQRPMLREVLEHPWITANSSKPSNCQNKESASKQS
Chain of Rho-associated protein kinase 1 (Q13464 whole entry): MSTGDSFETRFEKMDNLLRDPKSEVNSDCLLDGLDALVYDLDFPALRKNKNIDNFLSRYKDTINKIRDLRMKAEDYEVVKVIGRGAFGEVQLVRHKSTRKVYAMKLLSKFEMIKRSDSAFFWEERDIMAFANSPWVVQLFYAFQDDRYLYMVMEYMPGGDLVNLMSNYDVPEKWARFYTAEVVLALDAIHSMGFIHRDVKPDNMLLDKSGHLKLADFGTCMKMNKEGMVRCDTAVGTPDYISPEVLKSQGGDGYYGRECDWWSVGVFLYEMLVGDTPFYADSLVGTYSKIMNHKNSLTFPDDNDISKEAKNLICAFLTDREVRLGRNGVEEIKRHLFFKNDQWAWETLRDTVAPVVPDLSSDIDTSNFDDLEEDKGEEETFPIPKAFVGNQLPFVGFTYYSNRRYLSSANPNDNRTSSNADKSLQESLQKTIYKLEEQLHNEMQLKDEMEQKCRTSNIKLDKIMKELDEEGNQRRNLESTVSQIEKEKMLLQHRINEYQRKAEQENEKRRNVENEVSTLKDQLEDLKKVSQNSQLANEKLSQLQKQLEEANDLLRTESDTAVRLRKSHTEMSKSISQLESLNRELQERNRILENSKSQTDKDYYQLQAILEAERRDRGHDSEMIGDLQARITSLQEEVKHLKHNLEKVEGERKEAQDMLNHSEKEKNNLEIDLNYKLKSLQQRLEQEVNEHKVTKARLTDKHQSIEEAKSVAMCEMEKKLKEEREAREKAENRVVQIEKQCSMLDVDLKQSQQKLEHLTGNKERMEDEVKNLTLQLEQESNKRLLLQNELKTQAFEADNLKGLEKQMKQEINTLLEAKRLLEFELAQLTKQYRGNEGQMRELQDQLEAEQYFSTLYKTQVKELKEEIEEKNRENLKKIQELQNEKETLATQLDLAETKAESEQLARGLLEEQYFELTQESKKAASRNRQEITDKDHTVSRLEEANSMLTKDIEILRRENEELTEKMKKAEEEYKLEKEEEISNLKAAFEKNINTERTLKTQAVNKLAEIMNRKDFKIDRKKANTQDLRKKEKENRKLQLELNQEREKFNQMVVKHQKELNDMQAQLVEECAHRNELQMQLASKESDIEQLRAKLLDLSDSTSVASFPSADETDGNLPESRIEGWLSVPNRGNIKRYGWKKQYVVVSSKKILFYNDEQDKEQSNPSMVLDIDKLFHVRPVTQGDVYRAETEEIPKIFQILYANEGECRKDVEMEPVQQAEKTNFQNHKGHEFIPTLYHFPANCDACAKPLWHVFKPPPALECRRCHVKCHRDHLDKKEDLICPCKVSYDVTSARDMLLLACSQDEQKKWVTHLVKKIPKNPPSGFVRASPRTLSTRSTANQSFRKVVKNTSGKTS

Ki (Aurora kinase A) | Ki [1] | Ki [2] | Ki [3] | Ki [4] | Ki [5] | Ki [6] | Compound | AC50 (INS1) | IC50 (Caspase-3) | AC50 [7]
– | – | – | – | – | – | – | O=C(N/N=C/c1c(O)ccc2ccccc12)c1[nH]ncc1Br | 0.558 µM (active) | 27.7 µM (active) | –
> 1.58 µM (inactive) | > 3.98 µM (inactive) | > 3.16 µM (inactive) | > 3.16 µM (inactive) | > 2.51 µM (inactive) | > 3.98 µM (inactive) | > 2.51 µM (inactive) | Nc1c(-c2ccc(NC(=O)Nc3cccc(C(F)(F)F)c3)cc2)cnc2c(-c3ccc4c(c3)OCO4)cnn12 | – | – | –
– | – | – | – | – | – | – | CNC[C@H](Cc1ccccc1)NC[C@@H](Cc1cccc2ccccc12)NCCc1ccc(C)cc1 | 7.38 µM (active) | – | –
– | – | – | – | – | – | – | Nc1nnc2c(n1)CCCC2 | – | 14.3 µM (active) | 16.5 µM (active)
> 1.58 µM (inactive) | > 0.316 µM (inactive) | > 3.16 µM (inactive) | > 3.16 µM (inactive) | > 2.51 µM (inactive) | > 3.98 µM (inactive) | 0.316 µM (active) | O=C(Nc1cc(-c2c[nH]c3ncccc23)cc(Cl)n1)c1ccccc1 | – | – | –
– | – | – | – | – | – | – | O=C(Cc1ccccc1Cl)NC1(O)C(=O)c2ccccc2C1=O | – | – | 8.16 µM (active)
